In US20120309734A1, “COMBRETASTATIN DERIVATIVES AND USES THEREFOR” (priority 2009, published 2012):
pIC50: −log10 of the molar value. Read-outs that look alike come from different tables or passages of the source.

Tests used:
[1] = test system: human promyelocytic leukaemia HL-60 cells; experiment: MTT cell viability assay; assay type: cell-based; conditions: read-out: Inhibition of cell viability (IC50 value, nM) HL-60
[2] = test system: human chronic myeloid leukaemia K562 cells; experiment: MTT cell viability assay; assay type: cell-based; conditions: read-out: Inhibition of cell viability (IC50 value, nM) K562
[3] = test system: normal mouse mammary epithelial cells; experiment: Viability of normal mammary epithelial cells; assay type: cell-based; conditions: for Percent viability of normal mammary epithelial cells compared to control: 10 nM, 72 hr treatment; for effects on normal mammary epithelial cells: up to 10 μM
Method: The maximum toxicity elicited by these drugs on normal cells at a concentration of 10 nM was only 8% (see Table 4).

[4] = test system: HL-60 parental; experiment: Alamar Blue cell viability assay; assay type: cell-based; conditions: Homo sapiens, 72 h
Method: (§1) Cells were exposed to multiple concentrations of the indicated compound for 72 h. Cell viability was assessed using the Alamar blue assay and respective IC50 values were calculated. The resistance factor (RF) was calculated by dividing the IC50 of the resistant cell line/IC50 of the parental cell line.
(§2) A2780-parental and A2780-ADR resistant cells were provided by the Beatson Institute of Cancer Research, Glasgow. […] All cells were cultured in RPMI-1640 Glutamax medium supplemented with 10% FCS media, 100 units/ml penicillin and 100 μg/mIstreptomycin. Cells were maintained at 37° C. in 5% CO2 in a humidified incubator.
(§3) The reduction of Alamar Blue is proportional to the number of viable cells. Cells (200 μl) were plated in triplicate in a 96-well plates (K562, 100,000/ml; HL-60, 300,000/ml; A-2780 50,000/ml). A-2780 cells were plated 24 h prior to treatment. Suspension cells were plated in the log phase of growth and treated immediately. The cells were then treated with either medium alone, vehicle (1% ethanol v/v or 0.1% DMSO v/v) or with a range of concentrations of drug [0.001-10 μM]. After 72 h, Alamar Blue was added to each well (10% of final volume) and fluorescence was read using a 96-well fluorometer with excitation at 530 nm and emission of 590 nm. The blank solution consisted of medium and Alamar Blue and the blank solution was used to calibrate the spectrophotometer to zero absorbance. The relative cell viability (%) related to control wells and was calculated by [A]test/[A]control×100 where [A]test is the absorbance of the drug treated cells and [A]control the absorbance of the vehicle control treated cells. Dose response curves were plotted and IC50 values (concentration of drug resulting in 50% reduction in cell survival) were obtained using the commercial software package Prism (GraphPad Software, Inc., La Jolla, USA). Experiments were performed in triplicate on at least three separate occasions.

[5] = test system: HL-60-MDR(PGP); experiment: Alamar Blue cell viability assay; assay type: cell-based, human
Method: (§4) Three drug resistant cell lines and respective parental cell lines were assessed. […] Western blot analysis confirmed the overexpression of p-glycoprotein and BCRP in respective cell lines.
as §1
(§5) All cells were cultured in RPMI-1640 Glutamax medium supplemented with 10% FCS media, 100 units/ml penicillin and 100 μg/mIstreptomycin. Cells were maintained at 37° C. in 5% CO2 in a humidified incubator.
as §3

[6] = test system: A2780-parental; experiment: Alamar Blue cell viability assay; assay type: cell-based; conditions: 72 h
Method: as §1, §2, §3

[7] = biological target: T1, p-glycoprotein (Homo sapiens, UniProt P08183); experiment: Anti-proliferative effects in multi-drug resistant cells, conclusion on efflux; assay type: cell-based; conditions: concluded from resistance factors
T1 construct: HL-60-MDR (overexpress p-glycoprotein); endogenous in cells; host or cells: HL-60-MDR, A2780-ADR
Method: as §4, §1

[8] = test system: primary CML cells (BCR-ABL-positive); experiment: Apoptosis in ex vivo CML cells, annexin V staining; assay type: cell-based, human; conditions: 72 h
Description: This study is the first pre-clinical evaluation of combretastatins in the treatment of chemotherapy naive and patients with acquired imatinib mesylate resistance (refractory or relapsed disease despite adequate dose and duration). Imatinib mesylate is the first line treatment in BCR-ABL-positive CML chemotherapy. BCR-ABL, a constitutively active protein tyrosine kinase is a product of the Philadelphia chromosome (Ph) translocation t(9;22) and plays a central role in the pathogenesis of CML. […] All cells were treated with a clinically achievable concentration of imatinib mesylate (indicated as STI in FIG. 3) [250 nM]. […] The percentage apoptosis was determined by flow cytometric analysis of annexin-V stained cells.
The percentage of apoptosis in ex-vivo CML cells was determined by annexin V staining. […] Cells were collected by centrifugation at 400×g for 5 min and resuspended in anti-CD-45 diluted 1:50 in RPMI medium. Following a 10 min incubation in the dark at room temperature, cells were centrifuged and washed in Annexin binding buffer (Biosource, Nivelles, Belgium). Cells were again centrifuged and resuspended in Annexin-V-FITC (IQ products, Netherlands) diluted in Annexin binding buffer (1:50). Samples were next incubated in the dark on ice for 15 min. Annexin binding buffer (1 ml) was added to each sample. Samples were collected by centrifugation and resuspended in 0.5 ml of Annexin binding buffer. Cells were read immediately by flow cytometry and analysed by Cellquest software. CML cells were selected and gated based on their low to medium side scatter and low CD45 expression.

[9] = test system: normal mouse mammary epithelial cells; experiment: Viability of normal mammary epithelial cells; assay type: cell-based; conditions: 72 hr treatment
[10] = test system: HL-60-BCRP; experiment: Alamar Blue cell viability assay
Method: as §4, §1, §5, §3

[11] = test system: A2780-ADR (PGP); experiment: Alamar Blue cell viability assay
Method: as §4, §1, §5, §3

[12] = test system: MCF-7 breast cancer cell line; experiment: Antiproliferation study, MTT cell viability assay; assay type: cell-based; conditions: Homo sapiens
Method: All assays were performed in triplicate for the determination of mean values reported. Compounds were assayed as the free bases isolated from reaction. The human breast tumour cell line MCF-7 was cultured in Eagles minimum essential medium in a […] atmosphere with 10% fetal bovine serum, 2 mM L-glutamine and 100 μg/mL penicillin/streptomycin. The medium was supplemented with 1% non-essential amino acids. MDA-MB-231 cells were maintained in Dulbecco's Modified Eagle's medium (DMEM), supplemented with 10% (v/v) Fetal bovine serum, 2 mM L-glutamine and 100 μg/mL penicillin/streptomycin (complete medium). Cells were trypsinised and seeded at a density of 2.5×10^4 cells/ml in a 96-well plate and incubated at 37° C., […] atmosphere for 24 h. […] Control wells contained the equivalent volume of the vehicle ethanol (1% v/v). The culture medium was then removed and the cells washed with 100 μL phosphate buffered saline (PBS) and 50 μL MTT added, to reach a final concentration of 1 mg/mL MTT added. Cells were incubated for 2 h in darkness at 37° C. At this point solubilization was begun through the addition of 200 μL DMSO and the cells maintained at room temperature in darkness for 20 min to ensure thorough colour diffusion before reading the absorbance. The absorbance value of control cells (no added compound) was set to 100% cell viability and from this graphs of absorbance versus cell density per well were prepared to assess cell viability and from these, graphs of percentage cell viability versus concentration of subject compound added were drawn.

[13] = In vitro stability in plasma; assay type: in vitro ADME; conditions: human plasma
[14] = MCF7, 72 h, antiproliferative activity, MTT, 72 h, read-out: IC50 (μM) MCF-7 cell line

T1 sequence (P08183 whole entry): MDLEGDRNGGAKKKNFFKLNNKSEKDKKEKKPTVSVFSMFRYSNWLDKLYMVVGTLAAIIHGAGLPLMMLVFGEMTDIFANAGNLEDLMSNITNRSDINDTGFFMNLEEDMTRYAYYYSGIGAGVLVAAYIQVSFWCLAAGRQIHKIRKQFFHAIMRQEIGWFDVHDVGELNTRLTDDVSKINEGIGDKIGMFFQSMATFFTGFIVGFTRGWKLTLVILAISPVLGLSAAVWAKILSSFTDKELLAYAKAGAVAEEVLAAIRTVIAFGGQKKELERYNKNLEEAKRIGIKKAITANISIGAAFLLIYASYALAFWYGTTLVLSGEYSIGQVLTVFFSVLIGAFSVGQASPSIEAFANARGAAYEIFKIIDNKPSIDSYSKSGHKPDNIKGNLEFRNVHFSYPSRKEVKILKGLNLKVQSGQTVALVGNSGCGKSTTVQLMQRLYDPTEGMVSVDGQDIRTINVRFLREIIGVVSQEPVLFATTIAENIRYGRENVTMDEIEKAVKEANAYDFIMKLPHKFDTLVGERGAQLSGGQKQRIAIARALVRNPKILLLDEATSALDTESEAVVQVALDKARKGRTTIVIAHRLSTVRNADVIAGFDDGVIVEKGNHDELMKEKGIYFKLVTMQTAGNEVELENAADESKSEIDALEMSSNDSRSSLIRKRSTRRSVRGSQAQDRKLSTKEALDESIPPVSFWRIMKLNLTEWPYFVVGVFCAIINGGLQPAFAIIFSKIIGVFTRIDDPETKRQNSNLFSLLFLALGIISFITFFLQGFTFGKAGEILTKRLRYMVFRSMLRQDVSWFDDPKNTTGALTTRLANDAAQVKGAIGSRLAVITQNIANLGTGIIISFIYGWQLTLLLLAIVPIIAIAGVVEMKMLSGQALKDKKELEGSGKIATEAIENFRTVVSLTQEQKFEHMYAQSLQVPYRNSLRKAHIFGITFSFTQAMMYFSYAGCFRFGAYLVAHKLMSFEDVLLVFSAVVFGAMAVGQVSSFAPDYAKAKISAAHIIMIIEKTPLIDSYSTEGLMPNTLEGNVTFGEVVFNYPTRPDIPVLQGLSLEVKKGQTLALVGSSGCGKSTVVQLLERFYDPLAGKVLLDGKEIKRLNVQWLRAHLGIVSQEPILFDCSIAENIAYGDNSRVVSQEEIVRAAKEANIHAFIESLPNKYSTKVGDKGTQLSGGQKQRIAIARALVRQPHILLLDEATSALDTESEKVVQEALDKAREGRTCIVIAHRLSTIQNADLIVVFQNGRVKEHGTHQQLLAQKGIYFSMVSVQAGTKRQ

## COc1ccc(/C=C\c2cc(OC)c(OC)c(OC)c2)cc1O [CA-4, combretastatin A-4, reference compound]
[1]
  IC50: 4.1 nM
[2]
  IC50: 3.8 nM
[3]
  Percent viability of normal mammary epithelial cells compared to control: 92%
  effects on normal mammary epithelial cells: minimal effects
[4]
  pIC50: 8.35
[5]; Homo sapiens, HL60/MDR, 72 h
  pIC50: 8.48
[5]; IC50 HL-60-MDR(PGP) / IC50 HL-60 parental
  RF: 0.73
[6]
  pIC50: 8.12
[7]
  substrate for the p-glycoprotein: poor substrates for the p-glycoprotein
[8]; 250 nM each, patient samples
  apoptosis induction compared with imatinib mesylate: more effective inducers of apoptosis than imatinib mesylate
[8]; 250 nM, chemotherapy naïve (4 samples) and imatinib mesylate resistant (2 samples)
  apoptosis in primary CML cells: induced apoptosis
[9]; 1 nM
  Percent viability of normal mammary epithelial cells compared to control: 98%
[9]; 100 nM
  Percent viability of normal mammary epithelial cells compared to control: 74.8%
[9]; 1 μM
  Percent viability of normal mammary epithelial cells compared to control: 74.7%
[9]; 10 μM
  Percent viability of normal mammary epithelial cells compared to control: 75.0%
[10]; Homo sapiens, 72 h
  pIC50: 8.46
[10]; IC50 HL-60-BCRP / IC50 HL-60 parental
  RF: 0.8
[11]; A2780 ADR, 72 h
  pIC50: 8.17
[11]; IC50 A2780-ADR (PGP) / IC50 A2780-parental
  RF: 0.9

## COc1ccc(C2C(Oc3ccccc3)C(=O)N2c2cc(OC)c(OC)c(OC)c2)cc1O (stereo not shown) [Compound 1, 4-(3-Hydroxy-4-methoxy-phenyl)-3-phenoxy-1-(3,4,5-trimethoxy-phenyl)-azetidin-2-one]
[12]; [14]
  IC50: 0.038 µM
[13]
  half-life: 35 h

## C=CC1C(=O)N(c2cc(OC)c(OC)c(OC)c2)C1c1ccc(OC)c(O)c1 (stereo not shown) [Compound 2, 4-(3-Hydroxy-4-methoxy-phenyl)-1-(3,4,5-trimethoxy-phenyl)-3-vinyl-azetidin-2-one]
[12]; [14]
  IC50: 0.0014 µM
[12]; MCF7, MTT cell viability assay, read-out: Inhibition of cell viability (IC50 value, nM) MCF-7
  IC50: 0.0008 to 0.0031 µM
[1]
  IC50: 17.1 nM
[2]
  IC50: 26.6 nM
[3]
  Percent viability of normal mammary epithelial cells compared to control: 92.3%
  effects on normal mammary epithelial cells: minimal effects
[9]; 1 nM
  Percent viability of normal mammary epithelial cells compared to control: 93.1%
[9]; 100 nM
  Percent viability of normal mammary epithelial cells compared to control: 74.4%
[9]; 1 μM
  Percent viability of normal mammary epithelial cells compared to control: 73.0%
[9]; 10 μM
  Percent viability of normal mammary epithelial cells compared to control: 73.8%
